Test results published in patent US20040127472A1, “Use of anecortave acetate for the protection of visual acuity in patients with age related macular degeneration” (priority 2002, published 2004).

Assays:
[1] = Preclinical drug levels after slow-release depot adjacent to the posterior scleral surface; assay type: in vivo; settings: data not shown
[2] = biological target: urokinase-like plasminogen activator (Homo sapiens, UniProt P00749); settings: cited from earlier work
[3] = biological target: matrix metalloproteinase-3 (Homo sapiens, UniProt P08254); settings: cited from earlier work
[4] = Clinical trial, safety evaluation (ophthalmic and physical examinations, blood and urine); assay type: in vivo, patients
Excerpt: (§1) Clinical efficacy data is being obtained from evaluations of best-corrected logMAR visual acuity and standardized fluorescein angiograms. Clinical safety data obtained from general physical examinations, laboratory evaluations of blood and urine, and complete ophthalmic examinations, including indocyanine green angiography, continue to be periodically evaluated by the Independent Safety Committee overseeing this study. Clinical data from evaluations for safety and efficacy performed at Day 1-2, Week 2, Week 6, Month 3, and Month 6 following patient randomization and treatment are reported here.
Following completion of the Month 6 visit by all patients, the accumulated safety data were evaluated by the Independent Safety Committee overseeing this study. […] The most common ocular changes reported were changes in lens opacity using the Lens Opacity Classification System (LOCS) II, and included reports of nuclear color, nuclear opalescence, cortical, and posterior subcapsular changes. Cataracts are a common intercurrent disorder in this patient population, and the changes seen were documented in all treatment groups and in contralateral (untreated) eyes. The cataractous changes reported were described as mild and typically unrelated to treatment. The second most common ocular change, a decrease in vision (defined as a decrease of ≧4 logMAR lines from the previous visit), is also a common problem in this patient population. These vision decreases occurred in all treatment groups and in the contralateral eye. Other ocular changes (occurring with a frequency greater than 5%) were ptosis, ocular pain, subconjunctival hemorrhage, ocular pruritis, ocular burning/stinging, pupil disorders, foreign body sensation, ocular hyperemia, and abnormal vision. These changes were reported in all four treatment groups, in both treated eyes and contralateral eyes, were characterized as primarily mild, were generally not attributed to treatment, and were transient in nature. The single report of an IOP increase (≧10 mmHg) from Baseline occurred in a patient treated with anecortave acetate 30 mg and was attributed to intercurrent illness. Of the ocular changes reported, those most frequently attributed to study treatment were ptosis, ocular pain, subconjunctival hemorrhage, ocular pruritis, and ocular burning/stinging. These treatment-related events were mostly mild, transient, and seen within all four treatment groups.
The most common non-ocular changes from Baseline reported for this study were hypertension, peripheral edema, depression, and arthritis, none of which were attributed to treatment.

glucocorticoid receptor = biological target: T1, glucocorticoid receptor (Homo sapiens, UniProt P04150); settings: preclinical data (refs 8,9); cited from earlier work
T1 sequence (P04150 1-777): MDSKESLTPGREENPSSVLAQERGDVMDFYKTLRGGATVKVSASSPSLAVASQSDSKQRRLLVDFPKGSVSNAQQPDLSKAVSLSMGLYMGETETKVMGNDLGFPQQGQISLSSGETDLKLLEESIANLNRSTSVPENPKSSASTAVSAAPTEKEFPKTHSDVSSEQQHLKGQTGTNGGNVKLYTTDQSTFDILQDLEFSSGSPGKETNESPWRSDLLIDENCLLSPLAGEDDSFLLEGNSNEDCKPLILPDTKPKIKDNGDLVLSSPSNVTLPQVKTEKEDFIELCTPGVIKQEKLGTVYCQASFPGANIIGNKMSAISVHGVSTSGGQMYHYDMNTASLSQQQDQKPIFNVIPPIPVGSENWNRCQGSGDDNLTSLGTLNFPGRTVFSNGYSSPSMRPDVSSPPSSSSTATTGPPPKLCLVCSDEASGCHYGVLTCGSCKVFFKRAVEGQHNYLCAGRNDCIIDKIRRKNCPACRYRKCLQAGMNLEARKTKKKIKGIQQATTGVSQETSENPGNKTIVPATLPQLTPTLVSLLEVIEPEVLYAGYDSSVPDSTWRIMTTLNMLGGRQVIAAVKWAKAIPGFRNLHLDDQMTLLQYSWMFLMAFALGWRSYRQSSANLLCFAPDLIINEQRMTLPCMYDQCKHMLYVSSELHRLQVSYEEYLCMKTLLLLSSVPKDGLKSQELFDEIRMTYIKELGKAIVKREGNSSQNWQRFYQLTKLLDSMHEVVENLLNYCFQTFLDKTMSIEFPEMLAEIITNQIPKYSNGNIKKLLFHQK

[5] = system: patients with subfoveal choroidal neovascularization (CNV) secondary to AMD; assay: Clinical trial, best-corrected logMAR visual acuity after a single posterior juxtascleral administration; assay type: in vivo; settings: for LogMAR Change 1 Line Improved, % of patients / LogMAR Change 1 Line Worsened, % of patients / LogMAR Change 2 Lines Worsened, % of patients / LogMAR Change No Change, % of patients / LogMAR Change ≧2 Lines Improved, % of patients / LogMAR Change ≧3 Lines Worsened (clinically significant vision loss), % of patients: Month 6 vs Baseline
Excerpt: (§2) This ongoing trial was initiated to compare the clinical efficacy of anecortave acetate versus placebo treatment for preservation (maintenance) of vision and inhibition of CNV lesion growth. Patients with a logMAR visual acuity of 0.3 (20/40 Snellen equivalent) to 1.2 (20/320 Snellen equivalent) and primary or recurrent subfoveal choroidal neovascularization (CNV) secondary to AMD with a lesion up to 30.48mm^2 (12 disc areas) in size were enrolled. At Baseline and follow-up visits, best-corrected logMAR visual acuity was obtained on all patients using guidelines previously established for the Early Treatment Diabetic Retinopathy Study. Patient lesion eligibility for this study was determined from standardized fluorescein angiograms at the Digital Angiography Reading Center (DARC) by certified Readers (trained retina specialists) prior to enrollment and treatment. The DARC also evaluated changes from Baseline in the fluorescein angiographic characteristics of the lesions in masked fashion. Each data point represents the average of at least two independent evaluations by DARC Readers. Because all angiographic data for this study is being collected using the same fimdus camera and digital camera systems and stored as uncompressed digital images, the actual lesion surface areas can be more closely approximated in mm^2 rather than requiring the disc area “best-fit” estimates previously used for film angiographic data.
The 128 patients in this double-masked, dose-response study were enrolled and treated between April 1999 and May 2001 by 18 participating sites in the US and EU. Prior to treatment, patients were enrolled and equally randomized to anecortave acetate sterile suspension for injection 30 mg (N=33), 15 mg (N=33), or 3 mg (N=32) or to placebo (vehicle, N=30). Masking of the clinical sites as to treatment group is being maintained in two ways. Study medication is masked by placing the treatment kits including study medication and supplies for the posterior juxtascleral administration in sealed opaque boxes identified by patient number only. The boxes were numbered sequentially at each clinical site and patients were assigned the next available sequential number upon enrollment. The randomization was built into the sequential numbering of the treatment kits and blocked within each site to maintain equal distribution across treatment assignments. Masking as to treatment group is also being maintained at each site by having an unmasked injecting investigator perform the treatments and a masked examining investigator perform the subsequent evaluations. Upon enrollment of each patient, anecortave acetate or placebo was administered behind the eye as a 0.5 mL posterior juxtascleral injection onto the outer surface of the sclera near the macula using a specially designed cannula. The cannula is described in commonly owned U.S. Pat. No. 6,413,245B1.
as §1
The primary efficacy outcome for this ongoing study is the mean change from Baseline in best-corrected logMAR visual acuity. […]

[6] = system: plasminogen activator inhibitor 1; settings: cited from earlier work
[7] = system: subfoveal CNV lesion secondary to AMD; assay: Clinical trial, CNV lesion surface areas from standardized fluorescein angiograms (DARC); assay type: in vivo, patients; settings: for inhibition of lesion growth versus placebo: Month 6
Excerpt: as §2, §1
The primary efficacy outcome for this ongoing study is the mean change from Baseline in best-corrected logMAR visual acuity. Secondary efficacy outcomes are: the percentage of patients with preservation or maintenance of vision (defined as loss of less than three logMAR lines [less than 15 logMAR letters] of visual acuity); the percentage of patients with clinically significant worsening of vision (defined as a loss of at least three logMAR lines [at least 15 logMAR letters] of visual acuity); the percentage of patients with severe vision loss (defined as a loss of at least six logMAR lines [at least 30 logMAR letters] of visual acuity); and changes in CNV lesion characteristics (defined as total lesion area, total CNV and total classic CNV).
All efficacy analyses were based on the intent-to-treat principle. All patients received the medication to which they were assigned, and were analyzed accordingly. Last-observation-carry-forward was used to impute missing values. Baseline comparisons were tested using analysis of variance (for continuous outcomes) and Pearson's chi square (for binary outcomes). Changes from baseline in visual acuity and lesion parameters were tested in a repeated measures analysis of variance model with appropriate contrasts for the 6-month comparisons. Comparisons of binary outcomes at Month 6 were evaluated using Pearson's chi-square tests. All analyses of ocular outcomes are based on changes in the study (i.e., treated) eye.

[8] = 3 mg single administration, n = 32
[9] = 15 mg single administration, n = 33
[10] = 15 mg single administration, n = 33, listed as Anec Acet
[11] = 30 mg single administration, n = 33

matrix metalloproteinase-3, sequence (P08254 100-477, species assumed): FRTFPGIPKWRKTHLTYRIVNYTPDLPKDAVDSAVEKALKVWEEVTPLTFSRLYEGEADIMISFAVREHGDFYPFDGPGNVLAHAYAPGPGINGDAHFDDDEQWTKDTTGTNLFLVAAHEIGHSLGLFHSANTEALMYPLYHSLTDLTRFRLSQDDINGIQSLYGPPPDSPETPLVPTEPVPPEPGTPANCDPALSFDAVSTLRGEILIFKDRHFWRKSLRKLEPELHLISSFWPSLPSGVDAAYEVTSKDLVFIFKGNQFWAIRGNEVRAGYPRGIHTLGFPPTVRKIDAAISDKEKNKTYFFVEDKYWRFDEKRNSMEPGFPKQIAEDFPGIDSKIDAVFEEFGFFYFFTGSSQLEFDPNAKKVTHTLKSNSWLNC

CC(=O)OCC(=O)[C@@]1(O)CC[C@H]2[C@@H]3CCC4=CC(=O)CC[C@]4(C)C3=CC[C@@]21C [anecortave acetate, 4,9(11)-pregnadien-17α,21-diol-3,20 dione-21 acetate]
duration of therapeutic drug levels in the adjacent choroid and retina [1]: up to 6 months
effect on urokinase-like plasminogen activator [2]: inhibits
effect on matrix metalloproteinase-3 [3]: inhibits
reports of IOP increase (≧10 mmHg) from Baseline ([4]; 30 mg, attributed to intercurrent illness): single report
changes in blood chemistry, hematology, or urinalysis ([4]; all doses, 6 months): No treatment-related changes
safety evaluation by the Independent Safety Committee ([4]; all doses, after Month 6 visit): no clinically relevant medication-related or administration-related safety concerns were identified
ocular corticosteroid side effects (elevated intraocular pressure or accelerated cataract progression) ([4]; clinical study, at least 6 months exposure): no clinical evidence of ocular corticosteroid side effects
corticosteroid activity (glucocorticoid receptor): no measurable corticosteroid activity
LogMAR Change 1 Line Improved, % of patients [5, 8]: 0%
LogMAR Change 1 Line Worsened, % of patients [5, 8]: 12.5%
LogMAR Change 2 Lines Worsened, % of patients [5, 8]: 18.8%
LogMAR Change No Change, % of patients [5, 8]: 37.5%
LogMAR Change ≧2 Lines Improved, % of patients [5, 8]: 6%
LogMAR Change ≧3 Lines Worsened (clinically significant vision loss), % of patients [5, 8]: 25.0%
LogMAR Change ≧2 Lines Improved, % of patients ([5]; 3 mg single administration, n = 32, listed as Anec Acet): 6.3%
<6 Lines Worse, % of patients ([5]; 3 mg, Month 6): 78.13%
Severe Vision Loss, ≧6 Lines Worse, % of patients ([5]; 3 mg, Month 6): 21.88%
mean change at Month 6 from Baseline in logMAR visual acuity, versus placebo ([5]; 3 mg, statistical significance not achieved): Trends also favor treatment
average final logMAR value ([5]; 15 mg single administration, Month 6 (20/125 Snellen equivalent; Baseline 0.73)): 0.81 logMAR
LogMAR Change 1 Line Improved, % of patients [5, 9]: 3.0%
LogMAR Change 1 Line Worsened, % of patients [5, 9]: 12.1%
LogMAR Change 2 Lines Worsened, % of patients [5, 9]: 30.3%
LogMAR Change No Change, % of patients [5, 9]: 24.2%
LogMAR Change ≧2 Lines Improved, % of patients [5, 9]: 18%
LogMAR Change ≧3 Lines Worsened (clinically significant vision loss), % of patients [5, 9]: 12%
LogMAR Change ≧2 Lines Improved, % of patients [5, 10]: 18.2%
LogMAR Change ≧3 Lines Worsened (clinically significant vision loss), % of patients [5, 10]: 12.1%
mean change from Baseline logMAR visual acuity ([5]; 15 mg single treatment, Month 6): +0.08 logMAR score
<6 Lines Worse, % of patients ([5]; 15 mg, Month 6): 96.97%
Severe Vision Loss, ≧6 Lines Worse, % of patients ([5]; 15 mg, Month 6): 3.03%
percentage of patients with preservation of vision (decrease of less than three logMAR lines from Baseline) ([5]; 15 mg, Month 6, overall analysis): 88%
percentage of patients with preservation of vision (decrease of less than three logMAR lines from Baseline) ([5]; 15 mg, Month 6, subgroup with predominantly classic CNV lesion): 92%
mean change at Month 6 from Baseline in logMAR visual acuity, versus placebo ([5]; 15 mg, p=0.0032): statistically superior to placebo treatment
LogMAR Change 1 Line Improved, % of patients [5, 11]: 12.1%
LogMAR Change 1 Line Worsened, % of patients [5, 11]: 15.2%
LogMAR Change 2 Lines Worsened, % of patients [5, 11]: 15.2%
LogMAR Change No Change, % of patients [5, 11]: 30.3%
LogMAR Change ≧2 Lines Improved, % of patients [5, 11]: 3%
LogMAR Change ≧3 Lines Worsened (clinically significant vision loss), % of patients [5, 11]: 24.2%
LogMAR Change ≧2 Lines Improved, % of patients ([5]; 30 mg single administration, n = 33, listed as Anec Acet): 3.0%
<6 Lines Worse, % of patients ([5]; 30 mg, Month 6): 75.76%
Severe Vision Loss, ≧6 Lines Worse, % of patients ([5]; 30 mg, Month 6): 24.24%
mean change at Month 6 from Baseline in logMAR visual acuity, versus placebo ([5]; 30 mg, statistical significance not achieved): Trends also favor treatment
effect on plasminogen activator inhibitor 1 [6]: upregulates
inhibition of lesion growth versus placebo ([7]; 3 mg): trend favoring
inhibition of total CNV surface area growth, percent change from Baseline, versus placebo ([7]; 15 mg, Month 6, p=0.0001): statistically superior to placebo treatment
inhibition of total lesion surface area growth, percent change from Baseline, versus placebo ([7]; 15 mg, Month 6, p=0.0005): statistically superior to placebo treatment
inhibition of total classic CNV surface area growth, percent change from Baseline, versus placebo ([7]; 15 mg, Month 6, p=0.0008): statistically superior to placebo treatment
inhibition of lesion growth versus placebo ([7]; 30 mg): trend favoring
